Test results: patent US20200171159A1, “SELECTIVE DESTRUCTION OF CELLS” (priority 2017, published 2020)
Entries after “also recorded” stand apart in the source; their conditions may differ.

Legend:
[1] = test system: BT549 breast cancer cells; test: Cell survival, enzymatic MTT assay, Example 5; format: cell-based, human
H1975 cells [2] = test: Cell survival with LV-scFvCD24 and INr2 peptide, Example 3; format: cell-based, human; conditions: with peptide and LV-scFvCD24 particles
Procedure: The expression of CD24 in H1975 cells was evaluated by Flow cytometry. Briefly, approximately 1×10^6 cells were used in each experiment. Fluorescein isothiocyanate (FITC)—labeled humanized anti-human CD24 antibodies were used. Detection of bound antibodies was performed on a Cube6 and results were analyzed with the FCS express program. The lentivirus used was anti-CD24 scFv in an MOI of 30. The LentiBoost™ concentration used was 1:100 buffer A+1:100 buffer B (+spinoculation). The INr2 peptide was used in a concentration of 30 μM. FIG. 3A depicts the fluorescence (count) of the tested cells (Left—negative control, only secondary antibody; Right—duplicates of cells expressing CD24 after first and second-FITC antibodies). […] FIG. 3C is a schematic illustration of the of the experiment timeline. […] Particles were added on days 1, 4 and 7 as well.

H1975 cells [3] = test: Cell survival, enzymatic MTT assay, Example 2; conditions: with INS peptide and LV-scFvCD24 particles
Procedure: Cell line “H1975” cells were seeded in 96-well plates (2000 cells/well). […] Particles were added on day 2.

1975 lung cancer cells = test: Cell survival, enzymatic MTT assay, Example 5; format: cell-based, human; conditions: 1975 cells
IN-Rev interaction = IN-Rev interaction (Human immunodeficiency virus type 1 group M subtype B, UniProt P04618); conditions: cited from earlier work
[4] = cited from earlier work
HIV-1 = conditions: cited from earlier work
[5] = test system: DLD1, colorectal adenocarcinoma; test: Cell death of lentivirus-infected cells, fluorescent microscopy and MTT assay, Example 4; format: cell-based, human; conditions: DLD1 infected with CD24-targeted lentivirus; compared to the control peptide
Procedure: (§1) Integrase derived peptides (designated as INS) were synthesized as well as control peptide. Humanized Anti-CD24 antibody fragment (scFv) was engineered and fused to the lentivirus envelope. Cell death was measured qualitatively by using fluorescent microscopy and was quantified by the enzymatic MTT assay. Human colorectal cells (DLD1, colorectal adenocarcinoma, FIG. 4A) and breast cancer cells (MCF7, Human breast adenocarcinoma, FIG. 4B) were used for testing the potency of the lentiviral-based system.

[6] = test system: MCF7, Human breast adenocarcinoma; test: as above; format: cell-based; conditions: MCF7 infected with CD24-targeted lentivirus; compared to the control peptide
Procedure: as §1

viral Integrase enzyme = viral Integrase enzyme (Human immunodeficiency virus type 1 group M subtype B, UniProt P12497); test: Integrase stimulation in viral infected cells, Example 4; format: cell-based
Procedure: as §1

IN = molecular target: T1, IN (Human immunodeficiency virus type 1 group M subtype B, UniProt P12497); conditions: listed as INS; cited from earlier work
T1 construct: Stimulation of the HIV-1 Integrase Enzymatic Activity and cDNA Integration by a Peptide Derived from the Integrase Protein

HIV-1 integrase = molecular target: T2, HIV-1 integrase (Human immunodeficiency virus type 1 group M subtype B, UniProt P12497); test: Integrase activity in test tubes (HIV-1 integrase assay kit); format: biochemical
T2 construct: purchased
Procedure: The ability of INS to increase the activity of HIV-1 integrase was tested using the HIV-1 integrase assay kit.

Chain of IN-Rev interaction (P04618 whole entry, looked up): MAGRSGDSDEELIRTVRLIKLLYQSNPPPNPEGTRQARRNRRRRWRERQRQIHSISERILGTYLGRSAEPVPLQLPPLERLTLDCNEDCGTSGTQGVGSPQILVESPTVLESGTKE

Molecule	effect of Raltegravir on the decrease in survival [1]	effect of Raltegravir on the decrease in survival (H1975 cells [2])	effect of Raltegravir on the decrease in survival (H1975 cells [3])	effect of Raltegravir on the decrease in survival (1975 lung cancer cells)	IN-Rev interaction (IN-Rev interaction)	cell permeability [4]	virus infectivity (HIV-1)	cell death [5]	cell death [6]	stimulation of the viral Integrase enzyme (viral Integrase enzyme)	direct effect on IN activity (IN)	stimulation of the viral Integrase enzyme (HIV-1 integrase)
Cc1nnc(C(=O)NC(C)(C)c2nc(C(=O)NCc3ccc(F)cc3)c(O)c(=O)n2C)o1 [Raltegravir]	ameliorated	ameliorated	ameliorated	ameliorated	–	–	–	–	–	–	–	–
WGSNFTSTTVKA [INr2]	–	–	–	–	abrogated	cell-permeable	stimulated virus infectivity	–	–	–	–	–
WTAVQMAVFIHNFKRK [INS peptide]	–	–	–	–	abrogated	cell-permeable	stimulated virus infectivity	Massive cell death	Massive cell death	able to stimulate	directly activates the free IN; also recorded: direct stimulatory effect	able to stimulate
WTHLEGKIILVAVHVA [INr1]	–	–	–	–	abrogated	cell-permeable	stimulated virus infectivity	–	–	–	–	–
